Common to all, as to assay: DTP human tumour cell line panel, 48 h
Experiment [1] relates to A498 renal.
The test system of experiment [2] is CCRF-CEM leukemia.
The subject of experiment [3] is HCC-2998 colon.
Experiment [4] has as its system LOX IMVI melanoma.
The test system of experiment [5] is MALME-3M melanoma.
Experiment [6] has as its system NCI-H226 lung.
For experiment [7], the system named is NCI-H23 lung.
Experiment [8] concerns NCI-H460 lung.
Experiment [9] concerns SF-268 CNS.
The subject of experiment [10] is SF-539 CNS.

Several values for one entry are separate records, joined by “and”; a condition that tells them apart may be missing. Identical values can stand only once.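 Tested at 5 concentrations; 48 h exposure; 96-well plates; endpoints linearly interpolated, else capped at highest concentration. Abbreviation: GI50, concentration required for 50% inhibition of growth. At the TGI there is no net growth.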 Bounds are passed on as bounds.

This note sets out measurements from PubChem BioAssay (NCI).

Regarding `CC(=O)NC(CCCN(Cc1ccccc1)C(=O)N(CCCl)N=O)C(=O)NCc1ccccc1` (configuration not stated), the concentration for total growth inhibition (TGI) (in general, the concentration giving total growth inhibition) in [1] is greater than 72 µM; in [2], greater than 100 µM; in experiment [3], greater than 100 µM; in [4], greater than 57.1 µM; in experiment [5], greater than 75.6 µM; in experiment [6], greater than 94.2 µM. Further, the TGI is greater than 75.1 µM in experiment [7], greater than 79.6 µM in experiment [8], greater than 100 µM in [9] and 20.6 µM in experiment [10].
`O=C1CC2C(=O)N(Cc3ccccc3)C1C(S(=O)(=O)c1ccccc1)C2S(=O)(=O)c1ccccc1` (configuration not stated): the total growth inhibition concentration (TGI) came to 32.2 µM in experiment [1]; 3.46 µM in experiment [2]; 20.7 µM in [3]; 3.32 µM in experiment [4]; 3.87 µM in experiment [5]; 27.8 µM in [6]. In addition, the TGI worked out at 10.7 µM in experiment [7], 34.9 µM in experiment [8], 12.1 µM in experiment [9] and 4.18 µM in [10].
On to `C=C[C@]1(C)C=C2C(=O)[C@@]3(O)OC[C@@]4(CCCC(C)(C)C43O)C2(O)C(O)C1` (some centres not stated), for which the GI50 (usually the concentration at which growth is held to half of that of the control) was 12.8 µM in experiment [1]; 1.83 µM in [2]; 17.2 µM in experiment [3]; 1.96 µM in [4]; 1.36 µM in experiment [5]; 5.43 µM in [6]. Also, the GI50 was 2.71 µM in [7], 12.5 µM in experiment [8], 11.3 µM in experiment [9] and 5.15 µM in [10]. The TGI amounted to 25.6 µM in experiment [1]; 16.5 µM in [2]; 31.5 µM in [3]; 6.48 µM in experiment [4]; 3.02 µM in [5]; 12.1 µM in [6]. For the same molecule, the TGI came out at 8.51 µM in experiment [7], 28.2 µM in experiment [8], 23.9 µM in [9] and 15.4 µM in [10].
Regarding `COC(=O)C(Cc1nc2ccc(Cl)cc2[nH]c1=O)C(=O)C(=O)Nc1ccccc1[N+](=O)[O-]` (configuration not stated), the TGI in experiment [1], in [2], in [3], in experiment [4], in experiment [5] and in experiment [6] was greater than 100 µM in each case. Further, the TGI in experiment [7], in [8], in experiment [9] and in [10] was greater than 100 µM each time.
For the molecule `CCOC(=O)c1cnn(-c2ccnc3c(C(F)(F)F)cccc23)c1N`, the GI50 in experiment [1], in [2], in experiment [3], in [4], in experiment [5] and in experiment [6] was greater than 100 µM in each case. Besides, the GI50 in experiment [7], in experiment [8], in experiment [9] and in [10] was greater than 100 µM in each case. Besides, the TGI in experiment [1], in experiment [2], in [3], in experiment [4], in experiment [5] and in experiment [6] was greater than 100 µM each time. The total growth inhibition concentration (TGI) in experiment [7], in experiment [8], in [9] and in [10] was greater than 100 µM throughout.
For the molecule `COC(=O)[C@]1(C)CCC[C@@]2(C)C1CCC1=C[C@@]3(C(C)C)CC[C@]12OO3` (some centres not stated), the TGI was 67 µM in experiment [1]; 45.1 µM in experiment [2]; greater than 100 µM in [3]; 60.1 µM in [4]; greater than 100 µM in experiment [5]; 51.2 µM in experiment [6]. Moreover, the TGI in experiment [7] is greater than 100 µM; in experiment [8], 56.5 µM; in [9] it was 66.6 µM; in experiment [10], 47.5 µM.
Consider `Nc1nc(Nc2cccc(F)c2)nc2ccccc12`, for which the GI50 in experiment [1] is 1.4 µM; in experiment [2], 24.6 µM; in experiment [3] it was 18 µM; in [4], 15.5 µM; in [5], 18.6 µM; in [6] it was 35 µM. In addition, the GI50 is 24.1 µM in [7], 20.1 µM in [8], 28.5 µM in [9] and 16.8 µM in experiment [10]. The concentration for total growth inhibition (TGI) in experiment [1] was 44.8 µM; in [2] it was greater than 100 µM; in experiment [3], 37.3 µM; in [4] it was 29 µM; in experiment [5], 37.5 µM; in experiment [6], greater than 100 µM. Moreover, the TGI was greater than 100 µM in experiment [7], 57.3 µM in experiment [8], greater than 100 µM in experiment [9] and 34.2 µM in [10].
On to `CCc1c2c(nc3cccc(N)c13)-c1cc3c(c(=O)n1C2)COC(=O)[C@]3(O)CC`, for which the concentration for 50% growth inhibition (GI50) is 0.0569 µM in experiment [1]; less than 0.001 µM in experiment [2]; 0.0349 µM and 0.02 µM in experiment [3]; 0.00461 µM in experiment [4]; 0.0448 µM and 0.011 µM in [5]; 0.00208 µM in [6]. Besides, the GI50 is 0.00327 µM in experiment [7], 0.002 µM in [8], 0.00233 µM in [9] and less than 0.001 µM in experiment [10]. The total growth inhibition concentration (TGI) in experiment [1] was 0.487 µM and 0.0609 µM; in experiment [3], 1.39 µM and 11.4 µM; in [4], 0.182 µM; in [5], 2.3 µM and 3.11 µM; in [6], 0.157 µM; in experiment [9] it was 78 µM. For the same molecule, the TGI in [10] was found to be 0.00491 µM.
For `CCCCC[C@H]1C/C=C2/C(=O)C(Cl)=C[C@@H]2C/C=C\CCCC(=O)O[C@@H](CCCCC)C/C=C2/C(=O)C(Cl)=C[C@@H]2C/C=C\CCCC(=O)O1`, the GI50 in experiment [1] is 0.465 µM; in experiment [2], 0.145 µM; in experiment [3] it was 0.349 µM; in experiment [4] it was 0.201 µM; in experiment [5], 0.504 µM; in experiment [6], 0.38 µM. Moreover, the GI50 in experiment [7] was 0.34 µM; in [8] it was 0.405 µM; in experiment [9], 0.479 µM; in experiment [10], 0.518 µM. The TGI in experiment [1] amounted to 1.41 µM; in experiment [2] it was 1.76 µM; in experiment [3], 0.651 µM; in experiment [4], 0.437 µM; in experiment [5], 1.85 µM; in experiment [6] it was 0.86 µM. Also, the total growth inhibition concentration (TGI) worked out at 0.838 µM in experiment [7], 1.02 µM in experiment [8], 1.68 µM in experiment [9] and 1.97 µM in [10].
